Results from patent publication US8568736B2, “Polypeptide derivatives of parathyroid hormone (PTH)” (The General Hospital Corporation, priority 1999, dated 2013).
Where two headings read alike, the source gives them in different places. No end group written: not given here.

Assays:
[1] = molecular target: T1, truncated human PTH-1 receptor, hΔNt (Homo sapiens, UniProt Q03431); assay: cAMP stimulation in COS-7 cells transiently transfected with truncated receptor hDeINt; type: cell-based; settings: for Emax: hDeINt, Emax constrained to peptide #7 (20 μM) response
T1 construct: expressed in transfected cells; host or cells: COS-7, transient, pcDNA-1 plasmid derived from HK-WT
T1 sequence (Q03431 with tags, fused parts or gaps limits assumed): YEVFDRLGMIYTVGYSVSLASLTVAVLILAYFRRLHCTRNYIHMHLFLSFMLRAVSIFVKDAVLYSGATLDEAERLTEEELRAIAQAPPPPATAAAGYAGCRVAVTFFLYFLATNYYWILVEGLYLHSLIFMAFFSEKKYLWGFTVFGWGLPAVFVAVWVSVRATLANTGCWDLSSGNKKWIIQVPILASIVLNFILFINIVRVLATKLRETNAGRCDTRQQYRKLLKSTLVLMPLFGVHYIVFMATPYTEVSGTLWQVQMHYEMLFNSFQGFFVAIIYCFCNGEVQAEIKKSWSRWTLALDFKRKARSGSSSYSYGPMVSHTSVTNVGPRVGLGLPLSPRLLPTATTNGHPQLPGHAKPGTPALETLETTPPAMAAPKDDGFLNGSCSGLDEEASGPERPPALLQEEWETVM
Procedure: COS-7 cells were transfected in 24-well plates when the cells were 85 to 95% of confluency using 200 ng of plasmid DNA that was purified by cesium chloride/ethidium bromide gradient centrifugation for each well. Assays were conducted 72 to 96 hours after transfection.
(§1) Stimulation of cells with peptide analogs was performed in 24-well plates. Cells were rinsed with 0.5 mL of binding buffer and treated with 200 μL of cAMP assay buffer (Dulbecco's modified Eagle's medium containing 2 mM 3-isobutyl-1-methylxanthine, 1 mg/mL bovine serum albumin, 35 mM Hepes-NaOH, pH 7.4) and 100 μL of binding buffer containing varying amounts of peptide analog (final volume=300 μL). The medium was removed after incubation for 1 h at room temperature, and the cells were frozen (−80° C.), lysed with 0.5 mL 50 mM HCl, and refrozen (−80° C.). The cAMP content of the diluted lysate was determined by radioimmunoassay. Where possible, cAMP EC50 and Maximum response values were determined using nonlinear regression (see below).
All calculations were performed using Microsoft Excel. Nonlinear regression analysis of cAMP stimulation data was performed using parameters, defined as the Minimum, Maximum, Emax, midpoint (EC50), and slope of the response curve. The predicted response (yp) for a given dose (x) of peptide was calculated using the following equation: yp=Min+[(Max−Min)/(1+(EC50/x)^slope)]. […] The statistical significance between two data sets was determined using a one-tailed Student's t-test, assuming unequal variances for the two sets.

[2] = molecular target: T2, rat PTH-1 receptor (endogenous, ROS 17/2.8 cells) (Rattus norvegicus, UniProt P25961); assay: cAMP response in osteoblastic ROS 17/2.8 cells; type: cell-based; settings: for Emax: ROS 17/2.8 cells
T2 construct: The rat osteoblastic cell line ROS 17/2.8; endogenous in cells; host or cells: ROS 17/2.8 rat osteoblastic cells
T2 sequence (P25961 27-591): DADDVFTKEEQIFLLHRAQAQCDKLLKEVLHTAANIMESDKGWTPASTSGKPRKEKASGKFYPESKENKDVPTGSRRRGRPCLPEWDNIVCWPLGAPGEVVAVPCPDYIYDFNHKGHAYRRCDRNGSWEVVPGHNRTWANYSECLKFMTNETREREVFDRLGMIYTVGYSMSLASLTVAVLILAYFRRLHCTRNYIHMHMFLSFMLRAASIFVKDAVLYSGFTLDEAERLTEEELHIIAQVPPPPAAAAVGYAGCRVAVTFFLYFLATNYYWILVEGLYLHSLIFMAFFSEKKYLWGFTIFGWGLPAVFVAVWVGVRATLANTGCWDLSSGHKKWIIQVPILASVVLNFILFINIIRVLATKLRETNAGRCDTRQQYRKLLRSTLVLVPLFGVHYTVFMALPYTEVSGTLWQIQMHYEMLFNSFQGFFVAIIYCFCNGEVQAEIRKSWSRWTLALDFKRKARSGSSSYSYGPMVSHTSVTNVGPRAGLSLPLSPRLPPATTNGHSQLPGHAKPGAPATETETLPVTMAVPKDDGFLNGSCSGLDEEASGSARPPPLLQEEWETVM
Procedure: The rat osteoblastic cell line ROS 17/2.8 (Majeska, R. J., et al, Endocrinology 107:1494-1503 (1980)) expresses endogenous PTH-1 receptors at levels of 80,000 per cell and the human osteoblastic cell line, SAOS-2, express endogenous PTH-1 receptors at levels of ˜30,000 per cell.
as §1
All calculations were performed using Microsoft Excel. Nonlinear regression analysis of cAMP stimulation data was performed using parameters, defined as the Minimum, Maximum, Emax, midpoint (EC50), and slope of the response curve. The predicted response (yp) for a given dose (x) of peptide was calculated using the following equation: yp=Min+[(Max−Min)/(1+(EC50/x)^slope)]. The initial parameter values were estimated from the primary data, and the Excel “Solver function” was then used to vary the four parameters in order to minimize the differences between the predicted and actual responses (least-squares method) (Bowen, W., & Jerman, J., Trends in Pharmacol. Sci. 16:413-417 (1995)). The statistical significance between two data sets was determined using a one-tailed Student's t-test, assuming unequal variances for the two sets.

[3] = COS-7 cells, hDeINt truncated receptor, cAMP, read-out: EC50

Molecule	Emax ([1]; COS-7 cells)	EC50 [2]	Emax [2]	EC50 [1, 3]	fold more potent than native PTH(1-14) ([1]; truncated hPTH-1 receptor lacking most of the amino-terminal domain)	EC50 [1]	potency relative to rPTH(1-34) or hPTH(1-34) (in words) ([1]; COS-7 cells expressing hΔNt)
CCCC[C@H](NC(=O)[C@H](CCCNC(=N)N)NC(=O)[C@H](CCC(=O)O)NC(=O)[C@@H](NC(=O)[C@H](CO)NC(=O)[C@H](C)NC(=O)[C@H](CC(C)C)NC(=O)[C@H](Cc1c[nH]cn1)NC(=O)[C@H](CCCCN)NC(=O)CNC(=O)[C@H](CC(C)C)NC(=O)[C@H](CC(N)=O)NC(=O)[C@H](Cc1c[nH]cn1)NC(=O)[C@H](CCCC)NC(=O)[C@H](CC(C)C)NC(=O)[C@H](CCC(N)=O)NC(=O)[C@@H](NC(=O)[C@H](CCC(=O)O)NC(=O)[C@H](CO)NC(=O)[C@@H](NC(=O)[C@H](C)N)C(C)C)[C@@H](C)CC)C(C)C)C(=O)N[C@@H](CCC(N)=O)C(=O)N[C@@H](Cc1c[nH]c2ccccc12)C(=O)N[C@@H](CC(C)C)C(=O)N[C@@H](CCCNC(=N)N)C(=O)N[C@@H](CCCCN)C(=O)N[C@@H](CCCCN)C(=O)N[C@@H](CC(C)C)C(=O)N[C@@H](CCC(N)=O)C(=O)N[C@@H](CC(=O)O)C(=O)N[C@H](C(=O)N[C@@H](Cc1c[nH]cn1)C(=O)N[C@@H](CC(N)=O)C(=O)N[C@@H](Cc1ccc(O)cc1)C(N)=O)C(C)C [[Nle8, 21, Y34]rPTH(1-34), [Nle^8,21,Tyr^34]-rPTH(1-34)NH2, reference compound]	243 ± 63 picomole/well	0.316 nM	364 ± 6 picomole/well				
AVAEIQLMHAR-NH2 [compound 6, AlaValAlaGluIleGlnLeuMetHisAlaArg-amide]	243 ± 63 picomole/well		377 ± 23 picomole/well	27000 ± 12900 nM			
AVAEIQLMHARAKH-NH2 [Peptide #1, AlaValAlaGluIleGlnLeuMetHisAlaArgAlaLysHis-amide]	250 ± 61 picomole/well		395 ± 1 picomole/well	2370 ± 1060 nM	100 fold		
AVAEIQLMHARAKHLNSMERVEWLRKKLQDVHNY-NH2 [Peptide #7]	251 ± 39 picomole/well		395 ± 1 picomole/well			280 ± 160 nM	dramatically more potent
AVSEIQLMHNLGKH-NH2 [native rPTH(1-14), AVSEIQLMHNLGKH, reference compound]	222 ± 31 picomole/well		376 ± 23 picomole/well	313000 ± 121000 nM			
